PubChem BioAssay (NCI)
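These data come from cells grown in 96-well plates and exposed to compound for 48 hours at five concentrations. At the GI50, growth is halved. TGI denotes the concentration required for complete inhibition of growth.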

Assays:
Test in all cases: NCI-60 cell line screen, 48 h
786-0 renal = test system: 786-0 renal
A549 NSCLC = test system: A549 NSCLC
ACHN renal = test system: ACHN renal
CAKI-1 renal = test system: CAKI-1 renal
IGROV1 ovarian = test system: IGROV1 ovarian
MCF7 breast = test system: MCF7 breast
MOLT-4 leukemia = test system: MOLT-4 leukemia
RXF 393 renal = test system: RXF 393 renal
SF-268 CNS = test system: SF-268 CNS
T-47D breast = test system: T-47D breast

Row | Structure (SMILES) | TGI (786-0 renal) | TGI (A549 NSCLC) | TGI (ACHN renal) | TGI (CAKI-1 renal) | TGI (IGROV1 ovarian) | TGI (MCF7 breast) | TGI (MOLT-4 leukemia) | TGI (RXF 393 renal) | TGI (SF-268 CNS) | TGI (T-47D breast) | GI50 (786-0 renal) | GI50 (A549 NSCLC) | GI50 (ACHN renal) | GI50 (CAKI-1 renal) | GI50 (IGROV1 ovarian) | GI50 (MCF7 breast) | GI50 (MOLT-4 leukemia) | GI50 (RXF 393 renal) | GI50 (SF-268 CNS) | GI50 (T-47D breast)
1 | Nc1ccc(C(=O)N/C(=C\c2cccc([N+](=O)[O-])c2)c2nc3[nH]c(=S)[nH]c(=O)c3[nH]2)cc1 | > 93.1 µM | > 100 µM | > 100 µM | > 100 µM | > 100 µM | > 100 µM | > 56.2 µM | 55.9 µM | > 100 µM | > 89.5 µM | – | – | – | – | – | – | – | – | – | –
2 | COc1ccc2c(c1)[nH]c(=O)c1c3cccc(F)c3cn21 | > 86.1 µM | > 100 µM | > 100 µM | 0.04 µM | – | > 94.6 µM | 14.6 µM | 34.1 µM | 44.7 µM | > 100 µM | 0.0665 µM | 0.0667 µM | 0.0576 µM | 0.0137 µM | 0.0397 µM | 0.22 µM | 0.0425 µM | 0.0375 µM | 0.0749 µM | 42.1 µM
3 | Nc1ccc(C2=CC(c3ccc(Cl)cc3)N3C=CSC3=N2)cc1 (centres undefined) | 25.7 µM | 53.4 µM | 4.46 µM | > 100 µM | 6.69 µM | 4.52 µM | 89.7 µM | 4.18 µM | 30.7 µM | 27.7 µM | 6.74 µM | 3.68 µM | 2.02 µM | 23.1 µM | 2.53 µM | 1.22 µM | 4.03 µM | 2.03 µM | 11.3 µM | 4.76 µM
4 | CC1=C(SCCC(=O)OC(C[Se]C2=C(C)C(=O)c3ccccc3C2=O)C(=O)NCCCCCC(=O)OCc2ccccc2)C(=O)c2ccccc2C1=O (centres undefined) | 14 µM | 11.4 µM | 27.6 µM | 21.3 µM | 14.5 µM | 29.6 µM | > 100 µM | 28.3 µM | 19.9 µM | 51.8 µM | 4.68 µM | 3.95 µM | 12.1 µM | 6.89 µM | 2.13 µM | 4.75 µM | 4.08 µM | 14.9 µM | 7.33 µM | 17.7 µM
5 | Cc1cccc2nc3ccccc3c(Nc3ccc(NS(C)(=O)=O)cc3)c12 | 16.6 µM | 12.4 µM | 11 µM | 19.9 µM | 38.6 µM | 21.7 µM | 5.91 µM | 23.6 µM | 30.2 µM | 24 µM | 5.03 µM | 1.88 µM | 2.69 µM | 3.63 µM | 4.3 µM | 3.62 µM | 1.72 µM | 10.8 µM | 10.2 µM | 7.59 µM
6 | NCCCC[C@@H]1NC(=O)[C@H](CC(=O)O)NC(=O)CNC(=O)[C@H](CCCN=C(N)N)NC(=O)[C@@H](N)CSSC[C@@H](C(=O)O)NC(=O)[C@H](CC(=O)O)NC(=O)[C@@H]2CCCN2C(=O)CNC1=O | > 100 µM | > 100 µM | > 100 µM | > 100 µM | > 100 µM | > 100 µM | > 100 µM | > 100 µM | > 100 µM | > 100 µM | > 100 µM | > 100 µM | > 100 µM | > 100 µM | > 100 µM | > 100 µM | > 100 µM | > 100 µM | > 100 µM | > 100 µM
7 | CCOC(=O)Oc1cc2c(c(OC)c1OC)-c1ccc(OC)c(=O)cc1C(NC(C)=O)CC2 (centres undefined) | > 100 µM | > 100 µM | > 100 µM | > 100 µM | > 69.6 µM | > 100 µM | 22.9 µM | 0.564 µM | 73.5 µM | > 100 µM | – | – | – | – | – | – | – | – | – | –
8 | CC(C)(C)c1ccc(Oc2ccc(N)cn2)cc1 | > 100 µM | > 100 µM | > 100 µM | > 100 µM | > 100 µM | > 100 µM | > 100 µM | > 100 µM | > 100 µM | > 100 µM | 16.8 µM | 9.19 µM | > 100 µM | 21 µM | > 100 µM | 46.5 µM | 3.96 µM | 49.6 µM | 5.77 µM | 26.2 µM
9 | CCN(CC)CCCNc1cc(OC)cc2nc3cc(Cl)ccc3nc12 | 3.5 µM | 5.3 µM | 11.8 µM | 5.03 µM | 6.78 µM | 6.51 µM | 13.7 µM | 2.63 µM | 8.26 µM | 20.7 µM | 1.18 µM | 1.18 µM | 1.33 µM | 1.75 µM | 1.96 µM | 1.5 µM | 1.28 µM | 1.25 µM | 1.62 µM | 6.62 µM
10 | CC1C(C)N(C(=O)CCl)c2ccccc2N1C(=O)CCl (centres undefined) | 3.02 µM | 6.11 µM | 0.783 µM | 0.355 µM | 0.435 µM | 1.6 µM | 0.81 µM | 0.961 µM | 2.11 µM | 2.67 µM | 0.937 µM | 2.25 µM | 0.309 µM | 0.186 µM | 0.203 µM | 0.318 µM | 0.243 µM | 0.266 µM | 0.582 µM | 0.843 µM
11 | O=S(=O)(NNc1ccccc1)c1ccccc1 | > 100 µM | 23.5 µM | 15.8 µM | 13.5 µM | 32.7 µM | 28.8 µM | 99 µM | 38.5 µM | > 100 µM | 51.5 µM | – | – | – | – | – | – | – | – | – | –
